Tested on: MV-4-11 cells
Test: Gene expression microarray analysis (Affymetrix PrimeView) and GSEA
Type: cell-based, human
Parameters: RFU PODN (11730768_x_at) / Fold change /veh PODN (11730768_x_at) / RFU LINC00158 (11744669_a_at) / Fold change /veh LINC00158 (11744669_a_at) / RFU DUSP10 (11751237_a_at) / Fold change /veh DUSP10 (11751237_a_at) / RFU ID3 (11757404_x_at) / Fold change /veh ID3 (11757404_x_at) / RFU PLEKHG5 (11737974_s_at) / Fold change /veh PLEKHG5 (11737974_s_at) / RFU LRRC4B (11730491_at) / Fold change /veh LRRC4B (11730491_at) / RFU GIMAP4 (11747438_a_at) / Fold change /veh GIMAP4 (11747438_a_at) / RFU KRT8 (11758183_x_at) / Fold change /veh KRT8 (11758183_x_at) / RFU CNN1 (11734310_a_at) / Fold change /veh CNN1 (11734310_a_at) / RFU VPS37D (11726825_at) / Fold change /veh VPS37D (11726825_at) / RFU C10orf10 (11716522_x_at) / Fold change /veh C10orf10 (11716522_x_at) / RFU KIR2DL2 /// KIR2DL4 /// KIR2DL5A /// KIR2DL5B /// KIR2DS1 /// KIR2DS2 /// KIR2DS3 /// KIR2DS4 /// KIR3DL3 /// KIR3DL3 /// KIR3DS1 (11738374_at) / Fold change /veh KIR2DL2 /// KIR2DL4 /// KIR2DL5A /// KIR2DL5B /// KIR2DS1 /// KIR2DS2 /// KIR2DS3 /// KIR2DS4 /// KIR3DL3 /// KIR3DL3 /// KIR3DS1 (11738374_at) / RFU C1QL1 (11718748_at) / Fold change /veh C1QL1 (11718748_at) / RFU TMPRSS4 (11747572_a_at) / Fold change /veh TMPRSS4 (11747572_a_at) / RFU HAMP (11756126_x_at) / Fold change /veh HAMP (11756126_x_at) / RFU RNFT2 (11725882_a_at) / Fold change /veh RNFT2 (11725882_a_at) / RFU NR4A2 (11747474_a_at) / Fold change /veh NR4A2 (11747474_a_at) / RFU ABCC12 (11746883_a_at) / Fold change /veh ABCC12 (11746883_a_at) / RFU TMEM136 (11760407_x_at) / Fold change /veh TMEM136 (11760407_x_at) / RFU CLDN22 /// WWC2 (11732394_at) / Fold change /veh CLDN22 /// WWC2 (11732394_at) / RFU HLA-DPB1 (11760878_x_at) / Fold change /veh HLA-DPB1 (11760878_x_at) / RFU SPINT1 (11716480_a_at) / Fold change /veh SPINT1 (11716480_a_at) / RFU GAP43 (11754022_s_at) / Fold change /veh GAP43 (11754022_s_at) / RFU A4GNT (11735810_at) / Fold change /veh A4GNT (11735810_at) / RFU PRB3 (11715151_x_at) / Fold change /veh PRB3 (11715151_x_at) / RFU TUBB4B (11761932_at) / Fold change /veh TUBB4B (11761932_at) / RFU CAPN14 (11732068_a_at) / Fold change /veh CAPN14 (11732068_a_at) / RFU TMCC2 (11721928_a_at) / Fold change /veh TMCC2 (11721928_a_at) / RFU IRGQ (11745062_a_at) / Fold change /veh IRGQ (11745062_a_at) / RFU FAM174B (11720279_a_at) / Fold change /veh FAM174B (11720279_a_at) / RFU TMPRSS4 (11748680_a_at) / Fold change /veh TMPRSS4 (11748680_a_at) / RFU FAM212B (11763350_a_at) / Fold change /veh FAM212B (11763350_a_at) / RFU PLEKHG5 (11743358_a_at) / Fold change /veh PLEKHG5 (11743358_a_at) / RFU ZSCAN30 (11745921_a_at) / Fold change /veh ZSCAN30 (11745921_a_at) / RFU CMKLR1 (11741424_a_at) / Fold change /veh CMKLR1 (11741424_a_at) / RFU LOC101060620 /// MAPK8IP1 (11723275_at) / Fold change /veh LOC101060620 /// MAPK8IP1 (11723275_at) / RFU SPTSSB (11747773_x_at) / Fold change /veh SPTSSB (11747773_x_at) / RFU PRSS12 (11739890_at) / Fold change /veh PRSS12 (11739890_at) / RFU BIN1 (11741810_x_at) / Fold change /veh BIN1 (11741810_x_at) / RFU WNT11 (11732464_a_at) / Fold change /veh WNT11 (11732464_a_at) / RFU C10orf10 (11716521_a_at) / Fold change /veh C10orf10 (11716521_a_at) / RFU C5orf56 (11738089_at) / Fold change /veh C5orf56 (11738089_at) / RFU CYB561 (11721691_x_at) / Fold change /veh CYB561 (11721691_x_at) / RFU ANKRD19P (11752326_a_at) / Fold change /veh ANKRD19P (11752326_a_at) / RFU OR2T12 /// OR2T33 /// OR2T8 (11738714_s_at) / Fold change /veh OR2T12 /// OR2T33 /// OR2T8 (11738714_s_at) / RFU VCAN (11748164_a_at) / Fold change /veh VCAN (11748164_a_at) / RFU JSRP1 (11732532_at) / Fold change /veh JSRP1 (11732532_at) / RFU KRTAP10-11 (11738290_x_at) / Fold change /veh KRTAP10-11 (11738290_x_at) / RFU MYO3A (11730013_a_at) / Fold change /veh MYO3A (11730013_a_at) / RFU EBF3 (11725865_a_at) / Fold change /veh EBF3 (11725865_a_at) / RFU CAMK2N1 (11719241_x_at) / Fold change /veh CAMK2N1 (11719241_x_at) / RFU C5orf56 (11738088_a_at) / Fold change /veh C5orf56 (11738088_a_at) / RFU OLFML3 (11715873_a_at) / Fold change /veh OLFML3 (11715873_a_at) / RFU LOC100653217 /// NTM (11731650_a_at) / Fold change /veh LOC100653217 /// NTM (11731650_a_at) / RFU MAPK11 (11762145_a_at) / Fold change /veh MAPK11 (11762145_a_at) / RFU FIZ1 (11724087_x_at) / Fold change /veh FIZ1 (11724087_x_at) / RFU OASL (11726364_x_at) / Fold change /veh OASL (11726364_x_at) / RFU SOX15 (11748057_x_at) / Fold change /veh SOX15 (11748057_x_at) / RFU CD79A (11719716_a_at) / Fold change /veh CD79A (11719716_a_at) / RFU HIST1H1D (11736915_at) / Fold change /veh HIST1H1D (11736915_at) / RFU CASKIN2 (11723855_a_at) / Fold change /veh CASKIN2 (11723855_a_at) / RFU LOC730098 (11760151_x_at) / Fold change /veh LOC730098 (11760151_x_at) / RFU OR4N2 (11742367_at) / Fold change /veh OR4N2 (11742367_at) / RFU PRRT2 (11749266_a_at) / Fold change /veh PRRT2 (11749266_a_at) / RFU SNX32 (11753110_a_at) / Fold change /veh SNX32 (11753110_a_at) / RFU CDHR5 (11726645_a_at) / Fold change /veh CDHR5 (11726645_a_at) / RFU RCAN1 (11760418_a_at) / Fold change /veh RCAN1 (11760418_a_at) / RFU FAM167A (11723789_a_at) / Fold change /veh FAM167A (11723789_a_at) / RFU FAM26E (11764081_at) / Fold change /veh FAM26E (11764081_at) / RFU ISYNA1 (11749810_s_at) / Fold change /veh ISYNA1 (11749810_s_at) / RFU ACY1 (11761880_at) / Fold change /veh ACY1 (11761880_at) / RFU 11764098_at / Fold change /veh 11764098_at / RFU SAMD14 (11745864_x_at) / Fold change /veh SAMD14 (11745864_x_at) / RFU NPB (11741838_a_at) / Fold change /veh NPB (11741838_a_at) / RFU TMPRSS6 (11731388_a_at) / Fold change /veh TMPRSS6 (11731388_a_at) / RFU KRTAP10-2 (11738614_at) / Fold change /veh KRTAP10-2 (11738614_at) / RFU ARHGAP8 /// PRR5-ARHGAP8 (11727945_x_at) / Fold change /veh ARHGAP8 /// PRR5-ARHGAP8 (11727945_x_at) / RFU KRTAP5-7 /// NADSYN1 (11734609_at) / Fold change /veh KRTAP5-7 /// NADSYN1 (11734609_at) / RFU RASL12 (11751679_a_at) / Fold change /veh RASL12 (11751679_a_at) / RFU CDKN2B (11736163_a_at) / Fold change /veh CDKN2B (11736163_a_at) / RFU PRF1 (11729649_at) / Fold change /veh PRF1 (11729649_at) / RFU, ZNF638 /// ZNF638-IT1 / Fold change vs veh, ZNF638 /// ZNF638-IT1 / RFU, PANK3 / Fold change vs veh, PANK3 / RFU, SH3YL1 / Fold change vs veh, SH3YL1 / RFU, ZEB2 / Fold change vs veh, ZEB2 / RFU, NRIP1 / Fold change vs veh, NRIP1 / RFU, PTTG1IP / Fold change vs veh, PTTG1IP / RFU, CAPN2 / Fold change vs veh, CAPN2 / RFU, MED14 / Fold change vs veh, MED14 / RFU, SNORA58 / Fold change vs veh, SNORA58 / RFU, C1orf63 / Fold change vs veh, C1orf63 / RFU, LRRFIP1 / Fold change vs veh, LRRFIP1 / RFU, NDUFAF7 / Fold change vs veh, NDUFAF7 / RFU, SLC12A2 / Fold change vs veh, SLC12A2 / RFU, IBTK / Fold change vs veh, IBTK / RFU, ESF1 / Fold change vs veh, ESF1 / Fold change vs veh, TMEM50B / RFU, TAOK1 / Fold change vs veh, TAOK1 / RFU, ACBD3 / Fold change vs veh, ACBD3 / RFU, TMA16 / Fold change vs veh, TMA16 / RFU, RWDD3 / Fold change vs veh, RWDD3 / RFU, BCAT1 / Fold change vs veh, BCAT1 / RFU, EDEM3 / Fold change vs veh, EDEM3 / RFU, TMEM33 / Fold change vs veh, TMEM33 / RFU, WDR75 / Fold change vs veh, WDR75 / RFU, AHCTF1 / Fold change vs veh, AHCTF1 / RFU, TFRC / Fold change vs veh, TFRC / RFU, ZDHHC17 / Fold change vs veh, ZDHHC17 / RFU, NOM1 / Fold change vs veh, NOM1 / RFU, ARL8B / Fold change vs veh, ARL8B / RFU, ZBTB11 / Fold change vs veh, ZBTB11 / RFU, TAMM41 / Fold change vs veh, TAMM41 / RFU, KIAA1704 /// LOC100996395 / Fold change vs veh, KIAA1704 /// LOC100996395 / RFU, ING1 / Fold change vs veh, ING1 / RFU, TRMT61B / Fold change vs veh, TRMT61B / RFU, FUBP3 / Fold change vs veh, FUBP3 / RFU, TP53 / Fold change vs veh, TP53 / RFU, TNKS2 / Fold change vs veh, TNKS2 / RFU, ZFP14 / Fold change vs veh, ZFP14 / RFU, ACTR2 / Fold change vs veh, ACTR2 / RFU, PPP3R1 / Fold change vs veh, PPP3R1 / RFU, PIK3R1 / Fold change vs veh, PIK3R1 / RFU, HNRNPA1 / Fold change vs veh, HNRNPA1 / RFU, RNF170 / Fold change vs veh, RNF170 / RFU, ZNF28 / Fold change vs veh, ZNF28 / RFU, RNGTT / Fold change vs veh, RNGTT / RFU, OGT / Fold change vs veh, OGT / RFU, BRD1 / Fold change vs veh, BRD1 / RFU, MARS / Fold change vs veh, MARS / RFU, ZNF655 / Fold change vs veh, ZNF655 / RFU, FAHD1 / Fold change vs veh, FAHD1 / RFU, BDP1 / Fold change vs veh, BDP1 / RFU, LRRCC1 / Fold change vs veh, LRRCC1 / RFU, ARID1A / Fold change vs veh, ARID1A / RFU, ZNF146 / Fold change vs veh, ZNF146 / RFU, ZNF330 / Fold change vs veh, ZNF330 / RFU, GPN3 / Fold change vs veh, GPN3 / RFU, C9orf123 / Fold change vs veh, C9orf123 / RFU, N4BP2L2 / Fold change vs veh, N4BP2L2 / RFU, ARFIP1 / Fold change vs veh, ARFIP1 / RFU, FAM179B / Fold change vs veh, FAM179B / RFU, BCL10 / Fold change vs veh, BCL10 / RFU, UHRF1BP1L / Fold change vs veh, UHRF1BP1L / RFU, BET1 / Fold change vs veh, BET1 / RFU, CNOT2 / Fold change vs veh, CNOT2 / RFU, ZNF268 / Fold change vs veh, ZNF268 / Fold change vs veh, ZNF507 / RFU, DGCR2 / Fold change vs veh, DGCR2 / RFU, WDSUB1 / Fold change vs veh, WDSUB1 / Fold change vs veh, HSP90B1 /// MIR3652 / RFU, ADSS / Fold change vs veh, ADSS / RFU, GK / Fold change vs veh, GK / RFU, ZNF148 / Fold change vs veh, ZNF148 / RFU, TAF9 / Fold change vs veh, TAF9 / RFU, SLC1A5 / Fold change vs veh, SLC1A5 / RFU, SLMO2 / Fold change vs veh, SLMO2 / RFU, ABCC4 / Fold change vs veh, ABCC4 / RFU, LOC101060439 /// RAP1B / Fold change vs veh, LOC101060439 /// RAP1B / RFU, RFX7 / Fold change vs veh, RFX7 / RFU, GTPBP10 / Fold change vs veh, GTPBP10 / RFU, CNEP1R1 / Fold change vs veh, CNEP1R1 / RFU, BIVM-ERCC5 /// ERCC5 / Fold change vs veh, BIVM-ERCC5 /// ERCC5 / RFU, ILF3 / Fold change vs veh, ILF3 / RFU 11762660_at / Fold change /veh 11762660_at / RFU VCAN (11757783_s_at) / Fold change /veh VCAN (11757783_s_at) / RFU DDX43 (11728927_at) / Fold change /veh DDX43 (11728927_at) / RFU KRT8 (11758188_x_at) / Fold change /veh KRT8 (11758188_x_at) / RFU NKD1 (11759106_at) / Fold change /veh NKD1 (11759106_at) / RFU SRD5A1 (11742802_a_at) / Fold change /veh SRD5A1 (11742802_a_at) / RFU TPSAB1 /// TPSB2 (11721975_s_at) / Fold change /veh TPSAB1 /// TPSB2 (11721975_s_at) / RFU GSTM3 (11746129_a_at) / Fold change /veh GSTM3 (11746129_a_at) / RFU IL23R (11737362_x_at) / Fold change /veh IL23R (11737362_x_at) / RFU TMEM51 (11727254_a_at) / Fold change /veh TMEM51 (11727254_a_at) / RFU PIWIL2 (11732686_x_at) / Fold change /veh PIWIL2 (11732686_x_at) / RFU ORM1 (11744905_x_at) / Fold change /veh ORM1 (11744905_x_at) / RFU CCDC152 (11743942_at) / Fold change /veh CCDC152 (11743942_at) / RFU ECM1 (11717891_a_at) / Fold change /veh ECM1 (11717891_a_at) / RFU IL23R (11748794_a_at) / Fold change /veh IL23R (11748794_a_at) / RFU TNFAIP8L3 (11732012_x_at) / Fold change /veh TNFAIP8L3 (11732012_x_at) / RFU MBOAT4 (11741988_at) / Fold change /veh MBOAT4 (11741988_at) / RFU 11764193_at / Fold change /veh 11764193_at / RFU TMEM53 (11763286_at) / Fold change /veh TMEM53 (11763286_at) / RFU MAGEB2 (11727129_at) / Fold change /veh MAGEB2 (11727129_at) / RFU TMEM200A (11744735_a_at) / Fold change /veh TMEM200A (11744735_a_at) / RFU CCDC152 (11751479_a_at) / Fold change /veh CCDC152 (11751479_a_at) / RFU FAM211A (11726209_a_at) / Fold change /veh FAM211A (11726209_a_at) / RFU RGS16 (11746705_a_at) / Fold change /veh RGS16 (11746705_a_at) / RFU VCAN (11755009_s_at) / Fold change /veh VCAN (11755009_s_at) / RFU RHOB (11743442_s_at) / Fold change /veh RHOB (11743442_s_at) / RFU RGS16 (11720943_a_at) / Fold change /veh RGS16 (11720943_a_at) / RFU RGS16 (11720944_at) / Fold change /veh RGS16 (11720944_at) / RFU, VPS4B / Fold change vs veh, VPS4B / RFU, CREB1 / Fold change vs veh, CREB1 / RFU, DNAJC13 / Fold change vs veh, DNAJC13 / RFU, GNAQ / Fold change vs veh, GNAQ / RFU, CDK5R1 / Fold change vs veh, CDK5R1 / RFU, ZRANB3 / Fold change vs veh, ZRANB3 / RFU, CUL4A / Fold change vs veh, CUL4A / RFU, CCNY / Fold change vs veh, CCNY / RFU, UFL1 / Fold change vs veh, UFL1 / RFU, COG3 / Fold change vs veh, COG3 / RFU, DIAPH2 / Fold change vs veh, DIAPH2 / RFU, SKA2 / Fold change vs veh, SKA2 / RFU, AFF3 / Fold change vs veh, AFF3 / RFU, LMF1 / Fold change vs veh, LMF1 / RFU, IPO11 / Fold change vs veh, IPO11 / RFU, DFFB / Fold change vs veh, DFFB / RFU, FOXP1 / Fold change vs veh, FOXP1 / RFU, CARD8 / Fold change vs veh, CARD8 / RFU, STRN3 / Fold change vs veh, STRN3 / RFU, ADK / Fold change vs veh, ADK / RFU, RASSF2 / Fold change vs veh, RASSF2 / RFU, WIPF1 / Fold change vs veh, WIPF1 / RFU, LARP1B / Fold change vs veh, LARP1B / RFU, RASA1 / Fold change vs veh, RASA1 / RFU, RB1 / Fold change vs veh, RB1 / RFU, PPFIA1 / Fold change vs veh, PPFIA1 / RFU, MAT2A / Fold change vs veh, MAT2A / RFU, CCT5 / Fold change vs veh, CCT5 / RFU, WDR92 / Fold change vs veh, WDR92 / RFU, CUX1 / Fold change vs veh, CUX1 / RFU, TTC7A / Fold change vs veh, TTC7A / RFU, TMEM135 / Fold change vs veh, TMEM135 / RFU, DEPTOR / Fold change vs veh, DEPTOR / RFU, CPM / Fold change vs veh, CPM / RFU, DNAJB6 / Fold change vs veh, DNAJB6 / RFU, CACNA2D3 / Fold change vs veh, CACNA2D3 / RFU, DTX4 / Fold change vs veh, DTX4 / RFU, TFCP2 / Fold change vs veh, TFCP2 / RFU, GMCL1 /// GMCL1P1 / Fold change vs veh, GMCL1 /// GMCL1P1 / RFU, AEBP2 / Fold change vs veh, AEBP2 / RFU, SNHG1 /// SNORD22 /// SNORD25 /// SNORD26 /// SNORD27 /// SNORD28 /// SNORD29 /// SNORD31 / Fold change vs veh, SNHG1 /// SNORD22 /// SNORD25 /// SNORD26 /// SNORD27 /// SNORD28 /// SNORD29 /// SNORD31 / Fold change (Aza/veh), C12orf56 (ProbeSet 11735607_a_at) / Fold change (ACY-1035/veh), C12orf56 (ProbeSet 11735607_a_at) / Fold change (Aza/veh), FGFR1OP (ProbeSet 11751329_s_at) / Fold change (ACY-1035/veh), FGFR1OP (ProbeSet 11751329_s_at) / Fold change (Aza/veh), VPS36 (ProbeSet 11739960_a_at) / Fold change (ACY-1035/veh), VPS36 (ProbeSet 11739960_a_at) / RFU SYPL1 (11715823_x_at) / Fold change /veh SYPL1 (11715823_x_at) / RFU IGFBP7 (11715501_s_at) / Fold change /veh IGFBP7 (11715501_s_at) / RFU REEP3 (11722064_at) / Fold change /veh REEP3 (11722064_at) / RFU IGLL1 (11728026_x_at) / Fold change /veh IGLL1 (11728026_x_at): dose or concentration left out as unconfirmed
Settings: ProbeSet 11720566_at; LIST D

## Nc1ncn([C@@H]2O[C@H](CO)[C@@H](O)[C@H]2O)c(=O)n1 [azacitidine]
  RFU, BCAT1: 650.05 RFU
